Measured values taken from US11020481B2 (priority 2008, dated 2021).

How the values were obtained:
IL-6 [1] = assay: IL-6 production in TNFα-induced NL20 cells (ELISA); type: cell-based, human
Description: (§1) Am J Physiol Lung Cell Mol Physiol 2007; 292:[…]-352; and Donnarumma G, et al. Anti-inflammatory effects of moxifloxacin and human beta-defensin 2 association in human lung epithelial cell line (A549) stimulated with lipopolysaccharide. Peptides 2007; 28:2286-2292, incorporated by reference in their entireties). […] The effect of antibiotics on cytokine levels was assessed by ELISA assay. […] The day after seeding, cells received normal growth medium without serum for an additional 24 h. […] IL-6 and IL-8 production in NL20 monolayers was induced by treatment with 10 ng/ml of TNFα. […] After 48 h, cell medium was collected, clarified and the amount of IL-6 and IL-8 released into the medium was quantified using QuantiGlo chemiluminescent ELISA kits (R&D Systems, Minneapolis, Minn.). To test the effect of antibiotics on IL-6 and IL-8 secretion, antibiotics were added to culture media along with LPS or TNF-α and processed as described above.

[2] = system: IL-8, IL-6, ERK1/2, MK, and NFKB; settings: human lung epithelia cells; antibiotic concentrations less than 50 μg/ml; cited from earlier work
IL-1β = IL-1β production in LPS-stimulated THP-1 cells (ELISA); type: cell-based, human; settings: 24 h
Description: The human monocyte cell line, THP-1 is an established in vitro model of human monocytic cells and is capable to secrete a greater variety of cytokines compared to NL20 and HBE135 cells. THP-1 cells were cultured in RPMI-1640 medium with 10% FBS, 0.05 mM 2-mecraptoethanol. THP-1 cells were seeded on 24-well tissue culture plates at 1×10^6 cells/ml in growth media without serum. The following day, 100 ng/ml LPS from P. aeruginosa and antibiotics were added and cells incubated for 24 hours before media collection to assess cytokine production. Quantification of IL-6, IL-8, IL-1β and TNFα production was performed as described above for NL20 cells.

HBE135 cells = assay: Cytotoxicity on HBE135 cells, Alamar Blue assay; type: cell-based, human; settings: for changes in cell viability in cytotoxicity assays: Example 5, LPS-induced HBE135 cells, 10-300 μg/ml, data not shown
Description: (§2) After 48 hour incubation with the antibiotic, cells were incubated in fresh growth media containing 5% Alamar Blue dye and fluorescence was recorded at 0 h and 4 h to assess antibiotic cytotoxicity.

IL-6 [3] = assay: IL-6 production in LPS-induced HBE135 cells (ELISA); type: cell-based, human; settings: for decrease in IL-6 levels: Example 5, 5 μg/ml LPS
Description: as §1

IL-8 [4] = assay: IL-8 production in LPS-induced HBE135 cells (ELISA); type: cell-based, human
Description: as §1

IL-8 [5] = assay: IL-8 production in TNFα-induced NL20 cells (ELISA); type: cell-based, human; settings: for levels of IL-8 decreased: p<0.005
Description: as §1

IL-8 mRNA = IL-8 mRNA expression in TNFα-induced NL20 cells (real-time PCR); type: cell-based, human; settings: NL20 monolayers, 10 ng/ml TNFα, 24 h; 100 μg/ml and 300 μg/ml
Description: IL-8 mRNA expression in NL20 monolayers was induced by treatment with 10 ng/ml TNFα. Levofloxacin was added simultaneously with TNFα. After 24 h incubation, the cell monolayer was washed with PBS, total cellular RNA was prepared and reverse transcription was performed using a human IL-8 specific primer and the “Cells-to-cDNA” kit from Ambion (Austin, Tex.). cDNA was subjected to real-time PCR analysis using PowerSYBR Green PCR master mix and a GeneAmp 5700 Instrument (Applied Biosystems; Warrington, UK). All data were normalized to the housekeeping gene β-actin. […] This increase correlates with the increased levels of IL-8 protein induced by TNFα.

NL20 cells = system: NL20 cells
Description: as §2

IL-6 [6] = assay: IL-6 levels in BAL of LPS-injected mice after aerosol treatment; type: in vivo; settings: LPS i.p., aerosol 60 mg/kg, BAL at 6 hours
Description: (§3) Mice (n=4) were injected with 50 μg LPS by an intraperitoneal route. […] Mice were sacrificed 6 hours after aerosolized treatment, and bronchoalveolar (BAL) fluid was collected by lavage with 1 ml saline. IL-6 and MIP-2 (murine homolog of human IL-8) levels were determined by ELISA.

MIP-2 = MIP-2 levels in BAL of LPS-injected mice after aerosol treatment; type: in vivo; settings: 50 μg LPS i.p., aerosol 60 mg/kg 30 min after LPS, BAL 6 hours after treatment
Description: as §3

[7] = Example 3, NL20 cells induced with TNFα, 300 μg/ml
[8] = Example 5, NL20 cells, TNFα, 300 μg/ml
[9] = summary of Example 5, cultured human lung epithelial cell lines (line not given), 300 μg/ml, p<0.05
[10] = Example 5, NL20 cells, TNFα, 10 μg/ml to 100 μg/ml
[11] = summary of Example 5, cultured human lung epithelial cell lines (line not given)

## O=C(O)c1cn(C2CC2)c2cc(N3CCNCC3)c(F)cc2c1=O [ciprofloxacin]
IL-6 [1]; Example 1, NL20 cells, 10 ng/ml TNFα, 48 h, 10 μg/ml and 30 μg/ml antibiotic
  change in IL-6 levels: No significant change
IL-6 [1]; Example 1, NL20 cells, TNFα, 30 μg/ml
  IL-6 levels: increase

## Cc1c(F)c(N2CCNC(C)C2)cc2c1c(=O)c(C(=O)O)cn2C1CC1 (centres unmarked) [grepafloxacin]
[2]
  secretion of pro-inflammatory factor such as IL-8, IL-6, ERK1/2, MK, and NFKB: can inhibit

## C[C@H]1COc2c(N3CCN(C)CC3)c(F)cc3c(=O)c(C(=O)O)cn1c23 [levofloxacin]
IL-1β; 100 μg/ml
  decrease in IL-1I3 levels: 40%
IL-1β; 300 μg/ml
  decrease in IL-1I3 levels: 70%
HBE135 cells
  changes in cell viability in cytotoxicity assays: No significant changes
HBE135 cells; HBE135 cells, 48 hour incubation, higher concentrations
  cytotoxicity compared to moxifloxacin and ciprofloxacin: less cytotoxic
IL-6 [3]; 100 μg/ml
  decrease in IL-6 levels: 45%
IL-6 [3]; 300 μg/ml
  decrease in IL-6 levels: 40%
IL-8 [4]; Example 5, 100 μg/ml
  levels of IL-8 decreased: 30%
IL-8 [4]; Example 5, 300 μg/ml
  levels of IL-8 decreased: 20%
IL-8 [5]; [7]
  reduction in IL-8 levels: ~5 fold
IL-8 [5]; Example 5, NL20 cells, TNFα, 100 μg/ml
  levels of IL-8 decreased: 50%
IL-8 [5]; [8]
  levels of IL-8 decreased: 60%
IL-8 [5]; [9]
  reduced levels of IL-8: 2 fold
IL-6 [1]; [7]
  reduction in IL-6 levels: ~10 fold
IL-6 [1]; Example 5, NL20 cells, 10 ng/ml TNFα, 100 μg/ml, p<0.005
  reduction in IL-6 levels: 2 fold
IL-6 [1]; Example 5, NL20 cells, 10 ng/ml TNFα, 300 μg/ml, p<0.005
  reduction in IL-6 levels: 4 fold
IL-6 [1]; [9]
  reduced levels of IL-6: 4 fold
IL-8 mRNA
  level of IL-8 mRNA expression: no significant effect
NL20 cells
  cytotoxicity compared to moxifloxacin and ciprofloxacin: less cytotoxic
IL-6 [6]; p<0.05
  IL-6 levels lower than in the saline control: more than 2 fold

## NC[C@H]1O[C@H](O[C@H]2[C@H](O)[C@@H](O[C@H]3O[C@H](CO)[C@@H](O)[C@H](N)[C@H]3O)[C@H](N)C[C@@H]2N)[C@H](N)C[C@@H]1O [tobramycin]
MIP-2
  mean MIP-2 levels: 502 pg/mL
HBE135 cells
  changes in cell viability in cytotoxicity assays: No significant changes
IL-6 [3]; Example 5, LPS, 10 μg/ml, 30 μg/ml, or 100 μg/ml
  levels of IL-6: did not affect
IL-6 [3]; Example 5, LPS, 300 μg/ml
  increased levels of IL-6: 30%
IL-8 [5]; [10]
  production of IL-8: did not significantly affect
IL-8 [5]; [11]
  effect on IL-8: no effect
IL-6 [1]; [10]
  production of IL-6: did not significantly affect
IL-6 [1]; [8]
  IL-6 production: increase
IL-6 [1]; [11]
  increased IL-6 levels: 50%
IL-6 [6]
  IL-6 levels compared to the saline control: increase
